From US8278072B1, “Method for synthesis of sialylated products using reversible sialylation” (Health Research, Inc., priority 2007, dated 2012)
Marks after values point to notes of the source that are not given here.

Assays:
Assay type in all cases: biochemical
[1] = target: T1, ST3Gal-II (Rattus norvegicus, UniProt Q11205); experiment: Exchange of radiolabeled sialyl residues in bovine brain gangliosides (TLC); conditions: bovine brain ganglioside mixture, CMP-[9-3H]NeuAc or CMP-[14C]NeuAc
T1 construct: purchased Calbiochem
T1 sequence (Q11205 1-350): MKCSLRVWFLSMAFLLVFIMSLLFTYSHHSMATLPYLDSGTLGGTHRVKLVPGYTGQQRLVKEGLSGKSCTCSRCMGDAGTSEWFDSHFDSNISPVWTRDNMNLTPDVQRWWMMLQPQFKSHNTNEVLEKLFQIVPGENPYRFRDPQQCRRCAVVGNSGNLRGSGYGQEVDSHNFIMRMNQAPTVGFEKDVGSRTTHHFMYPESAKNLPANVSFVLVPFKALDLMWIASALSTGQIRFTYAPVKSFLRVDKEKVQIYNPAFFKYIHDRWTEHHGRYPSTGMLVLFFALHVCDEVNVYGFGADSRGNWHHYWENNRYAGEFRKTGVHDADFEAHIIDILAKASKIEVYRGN
From the text: Rat recombinant ST3Gal-II (α2,3(0)ST) was purchased from Calbiochem. Three different lots of ST3Gal-II purchased from Calbiochem and used in this study yielded similar results. CMP-NeuAc was obtained from Sigma. All enzymatic sialylation reactions were typically carried out in NaCa Codylate buffer pH6.0 in presence of enzyme acceptor CMP-[9-^3H]NeuAc or (NEN-DuPont) CMP[^14C]NeuAc. The concentration of total CMP-NeuAc was adjusted in individual reactions by supplementing with non-radioactive CMP-NeuAc. Products formed were separated using different chromatograph procedures. • a) Gel chromatography on Biogel P2 and P6 columns: A Biogel P2 column or Biogel P6 column (Fine Mesh; 1.0×116.0 cm) was used with 0.1 M pyridine acetate (pH5.4) as the eluent at room temperature. […] The first peak of radioactivity emerging in this void volume was collected and lyophilized to dryness. […]
Both [9-^3H] and [^14C] sialic acid labeled bovine brain ganglioside mixtures were subjected to TLC using CHcl3:CH3OH:0.2% aqueous CaCl2 (v/v 60:40:9) as the solvent system. The radioactivities were located on the TLC plates by scraping silica gel from 0.5 cm width segments of the TLC plates and then counting the radioactivity after soaking silica in 2.0 ml water by scintillation counting. […]

[2] = target: T2, ST3Gal-III (Rattus norvegicus, UniProt Q02734); experiment: Donor specificity for reverse sialylation, ST3Gal-III; conditions: 0.05 mM donor, 0.8 mM 5′-CMP
T2 construct: purchased Calbiochem
T2 sequence (Q02734 1-374): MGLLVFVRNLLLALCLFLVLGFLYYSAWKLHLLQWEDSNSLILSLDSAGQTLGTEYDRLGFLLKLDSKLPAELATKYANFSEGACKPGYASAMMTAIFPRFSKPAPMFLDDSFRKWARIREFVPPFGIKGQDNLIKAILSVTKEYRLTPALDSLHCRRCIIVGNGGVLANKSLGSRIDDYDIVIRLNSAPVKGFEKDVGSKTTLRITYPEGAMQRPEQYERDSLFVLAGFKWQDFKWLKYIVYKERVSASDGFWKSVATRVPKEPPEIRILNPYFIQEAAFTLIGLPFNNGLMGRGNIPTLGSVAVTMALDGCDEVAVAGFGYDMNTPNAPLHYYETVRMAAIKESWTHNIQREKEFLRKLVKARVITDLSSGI
From the text: (§1) We determined if reverse sialylation was more pronounced for ST3Gal-II in comparison to other sialyltransferases. Thus two other cloned rat sialyltransferases ST3Gal-III (or α2,3(N)ST) and ST6Gal-I (or α2,6(N)ST) (14) were examined. For these studies, we generated two molecules: i) [9-^3H]NeuAcα2,6Galβ1,4GlcNAcβ-O—Al (Al-Allyl) was made by the reaction of Galβ1,4GlcNAcβ-O—Al and CMP-[9-^3H]NeuAc in the presence of α2,6sialyltransferase, ST6Gal-I. (The radioactive product was separated using Biogel P2 column using a protocol similar to that described above.); and ii) [9-^3H]NeuAcα2,3Galβ1,4 GlcNAcβ-O—Al was similarly produced by reacting Galβ1,4GlcNAcβ-O—Al and CMP-[9-^3H]NeuAc in the presence of α2,3sialyltransferase ST3Gal-III. […] However, it is efficiently sialylated by both ST3Gal-III and ST6Gal-I. The ability of these two radiolabeled molecules ([14] and [15]) to act as [9-^3H]NeuAc donors was assayed in studies (Table IV) where the compounds were mixed with excess 5′-CMP, enzyme and acceptors with benzyl aglycan group. C18 cartridges were then used to measure the extent of [9-^3H]NeuAc transferred to acceptor using reaction scheme-II. Because all acceptors used in this table are efficiently sialylated by enzymes listed in the adjacent columns, these experiments essentially measure the amount of CMP-NeuAc formed using particular donor-enzyme pairs.
(§2) Thus, reverse sialylation takes place with ST3Gal-II.

[3] = target: T1, ST3Gal-II; experiment: Donor specificity for reverse sialylation, ST3Gal-II; conditions: 0.05 mM donor, […] 5′-CMP, acceptor 5 mM D-Fuc(1,3GalNAc(-O-Bn, 3 mU ST3Gal-II)); zero = slightly below background
From the text: as §1, with “pairs. […]” for “pairs.”

[4] = target: T3, ST6Gal-I (Rattus norvegicus, UniProt P13721); experiment: Donor specificity for reverse sialylation, ST6Gal-I; conditions: 0.05 mM donor, 0.8 mM 5′-CMP, 3 mU ST6Gal-I
T3 construct: purchased Calbiochem
T3 sequence (P13721 1-403): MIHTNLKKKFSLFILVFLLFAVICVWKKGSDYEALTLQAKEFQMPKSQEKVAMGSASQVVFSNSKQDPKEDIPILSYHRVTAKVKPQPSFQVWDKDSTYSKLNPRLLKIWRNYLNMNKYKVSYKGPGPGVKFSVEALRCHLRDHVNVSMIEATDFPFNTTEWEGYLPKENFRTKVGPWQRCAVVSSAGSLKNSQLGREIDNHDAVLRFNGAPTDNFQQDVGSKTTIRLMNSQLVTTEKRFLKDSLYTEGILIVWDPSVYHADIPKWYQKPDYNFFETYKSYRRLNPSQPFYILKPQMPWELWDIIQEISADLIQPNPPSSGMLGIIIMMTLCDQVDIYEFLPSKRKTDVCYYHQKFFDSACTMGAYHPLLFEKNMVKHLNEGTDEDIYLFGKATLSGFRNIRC
From the text: as §1, §2

GD1a
Exchange of sialyl residues with CMP-sialic acid by ST3Gal-II [1]: exchangeable

GT1b
Exchange of sialyl residues with CMP-sialic acid by ST3Gal-II [1]: exchangeable

[9-^3H]NeuAcα2,3Galβ1,4 GlcNAcβ-O—Al [[15]]
Radiolabeled acceptor/product formed ([2]; acceptor 2.5 mM Gal(1,4GlcNAc(1,3Gal(1,4GlcNAc(-O-Bn, 3 mU ST3Gal-III))))): 24 CPM | Radiolabeled acceptor/product formed ([2]; acceptor 2.5 mM Galβ1,4GlcNAcβ1,6(Galβ1,3)GalNAcα-O-Bn, 3 mU ST3Gal-III): 27 CPM | Radiolabeled acceptor/product formed ([2]; acceptor 2.5 mM Galβ1,4GlcNAcβ-O-Bn, 3 mU ST3Gal-III): 5 CPM | Radiolabeled acceptor/product formed [3]: <0* CPM

[9-^3H]NeuAcα2,6Galβ1,4GlcNAcβ-O—Al [[14]]
Radiolabeled acceptor/product formed ([4]; acceptor 2.5 mM Galβ1,4GlcNAcβ1,3Galβ1,4GlcNAcβ-O-Bn): 45 CPM | Radiolabeled acceptor/product formed ([4]; acceptor 2.5 mM Galβ1,4GlcNAcβ1,6(Galβ1,3)GalNAcα-O-Bn): 36 CPM | Radiolabeled acceptor/product formed ([4]; acceptor 2.5 mM Galβ1,4GlcNAcβ-O-Bn): 129 CPM | Radiolabeled acceptor/product formed [3]: <0* CPM
